This note sets out measurements from US20090232838A1, “Ligands of melanocortin receptors” (priority 2005, published 2009).

As usually defined, the Kb is the affinity of an antagonist, worked out from how it opposes an agonist.

In one assay the target is T1, hMC4-R (Homo sapiens, UniProt P32245).
T1 construct: expressed in transfected cells; host or cells: CHO-K1
Briefly: cyclic AMP bioassay, hMC4-R. The format is cell-based. As to conditions: Table 3A; cAMP in CHO-K1 cells, antagonist potency by Schild analysis; read-out: Kb hMC4-R.

The target in another assay is T2, hMC3-R (Homo sapiens, UniProt P41968).
T2 construct: expressed in transfected cells; host or cells: CHO-K1
Briefly: cyclic AMP bioassay, hMC3-R. As to conditions: Table 3A; cAMP in CHO-K1 cells, antagonist potency by Schild analysis; read-out: Kb hMC3-R. Type of assay: cell-based.

T2 sequence (P41968 whole entry): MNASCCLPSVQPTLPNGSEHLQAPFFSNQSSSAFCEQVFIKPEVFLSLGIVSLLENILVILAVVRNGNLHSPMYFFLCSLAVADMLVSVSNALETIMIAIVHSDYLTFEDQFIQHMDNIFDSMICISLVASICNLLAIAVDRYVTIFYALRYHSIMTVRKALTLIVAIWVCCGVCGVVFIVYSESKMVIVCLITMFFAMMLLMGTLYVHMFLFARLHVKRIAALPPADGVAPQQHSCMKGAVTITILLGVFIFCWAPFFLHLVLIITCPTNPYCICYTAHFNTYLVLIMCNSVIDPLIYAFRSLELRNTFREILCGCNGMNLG
T1 sequence (P32245 whole entry): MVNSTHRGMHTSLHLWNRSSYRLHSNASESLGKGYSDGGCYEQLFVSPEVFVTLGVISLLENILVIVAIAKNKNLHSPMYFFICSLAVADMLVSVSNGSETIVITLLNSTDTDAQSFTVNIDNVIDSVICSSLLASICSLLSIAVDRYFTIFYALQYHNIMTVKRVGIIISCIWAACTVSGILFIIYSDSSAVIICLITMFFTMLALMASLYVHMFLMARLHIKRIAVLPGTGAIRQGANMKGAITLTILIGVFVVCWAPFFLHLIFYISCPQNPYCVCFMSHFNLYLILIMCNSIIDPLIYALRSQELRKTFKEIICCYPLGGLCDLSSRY

Consider `CCCC[C@H](NC(C)=O)C(=O)N[C@H]1CC(=O)NCCCC[C@@H](C(=O)N2CCC[C@H]2C(=O)N2CCC[C@H]2C(=O)N[C@@H](CCCCN)C(=O)N[C@@H](CC(=O)O)C(=O)N[C@@H](Cc2ccc(O)cc2)C(=O)NCC(=O)N[C@@H](CCCNC(=N)N)C(=O)N[C@@H](CCCCN)C(=O)N[C@@H](CCCCN)C(=O)N[C@@H](CCCNC(=N)N)C(=O)N[C@@H](CCCNC(=N)N)C(=O)N[C@@H](CCC(N)=O)C(=O)N[C@@H](CCCNC(=N)N)C(=O)N[C@@H](CCCNC(=N)N)C(=O)N[C@@H](CCCNC(=N)N)C(N)=O)NC(=O)[C@H](Cc2c[nH]c3ccccc23)NC(=O)[C@H](CCCNC(=N)N)NC(=O)[C@@H](Cc2ccc3ccccc3c2)NC(=O)[C@H](Cc2c[nH]cn2)NC1=O`, for which the Kb at hMC4-R was found to be 22.8 nM; at hMC3-R it was 14.1 nM.
Consider `CCCC[C@H](NC(C)=O)C(=O)N[C@H]1CC(=O)NCCCC[C@@H](C(=O)NCCC(=O)N[C@@H](Cc2ccc(O)cc2)C(=O)NCC(=O)N[C@@H](CCCNC(=N)N)C(=O)N[C@@H](CCCCN)C(=O)N[C@@H](CCCCN)C(=O)N[C@@H](CCCNC(=N)N)C(=O)N[C@@H](CCCNC(=N)N)C(=O)N[C@@H](CCC(N)=O)C(=O)N[C@@H](CCCNC(=N)N)C(=O)N[C@@H](CCCNC(=N)N)C(=O)N[C@@H](CCCNC(=N)N)C(N)=O)NC(=O)[C@H](Cc2c[nH]c3ccccc23)NC(=O)[C@H](CCCNC(=N)N)NC(=O)[C@@H](Cc2ccc3ccccc3c2)NC(=O)[C@H](Cc2c[nH]cn2)NC1=O`, for which the Kb was 4.07 nM on hMC4-R and 220 nM at hMC3-R.
`CC(=O)N[C@H]1CSSC[C@@H](C(=O)N2CCC[C@H]2C(=O)N2CCC[C@H]2C(=O)N[C@@H](CCCCN)C(=O)N[C@@H](CC(=O)O)C(=O)N[C@@H](Cc2ccc(O)cc2)C(=O)NCC(=O)N[C@@H](CCCNC(=N)N)C(=O)N[C@@H](CCCCN)C(=O)N[C@@H](CCCCN)C(=O)N[C@@H](CCCNC(=N)N)C(=O)N[C@@H](CCCNC(=N)N)C(=O)N[C@@H](CCC(N)=O)C(=O)N[C@@H](CCCNC(=N)N)C(=O)N[C@@H](CCCNC(=N)N)C(=O)N[C@@H](CCCNC(=N)N)C(N)=O)NC(=O)CNC(=O)[C@H](Cc2c[nH]c3ccccc23)NC(=O)[C@H](CCCNC(=N)N)NC(=O)[C@@H](Cc2ccc3ccccc3c2)NC(=O)[C@H](Cc2c[nH]cn2)NC(=O)[C@H](CCC(=O)O)NC1=O`: the antagonist equilibrium constant (Kb) on hMC4-R is 26 nM; on hMC3-R, 233 nM.
For `CCCC[C@H](N)C(=O)N[C@H]1CC(=O)NCCCC[C@@H](C(=O)NCCC(=O)N[C@@H](Cc2ccc(O)cc2)C(=O)NCC(=O)N[C@@H](CCCNC(=N)N)C(=O)N[C@@H](CCCCN)C(=O)N[C@@H](CCCCN)C(=O)N[C@@H](CCCNC(=N)N)C(=O)N[C@@H](CCCNC(=N)N)C(=O)N[C@@H](CCC(N)=O)C(=O)N[C@@H](CCCNC(=N)N)C(=O)N[C@@H](CCCNC(=N)N)C(=O)N[C@@H](CCCNC(=N)N)C(N)=O)NC(=O)[C@H](Cc2c[nH]c3ccccc23)NC(=O)[C@H](CCCNC(=N)N)NC(=O)[C@@H](Cc2ccc3ccccc3c2)NC(=O)[C@H](Cc2c[nH]cn2)NC1=O` the same measures were 18.5 nM and 207 nM.
Regarding `CCCC[C@H](NC(=O)COCCOCCNC(=O)[C@H](CCCNC(=N)N)NC(=O)[C@H](CCCNC(=N)N)NC(=O)[C@H](CCCNC(=N)N)NC(=O)[C@H](CCC(N)=O)NC(=O)[C@H](CCCNC(=N)N)NC(=O)[C@H](CCCNC(=N)N)NC(=O)[C@H](CCCCN)NC(=O)[C@H](CCCCN)NC(=O)[C@H](CCCNC(=N)N)NC(=O)CNC(=O)[C@@H](N)Cc1ccc(O)cc1)C(=O)N[C@H]1CC(=O)NCCCC[C@@H](C(N)=O)NC(=O)[C@H](Cc2c[nH]c3ccccc23)NC(=O)[C@H](CCCNC(=N)N)NC(=O)[C@@H](Cc2ccc3ccccc3c2)NC(=O)[C@H](Cc2c[nH]cn2)NC1=O`, the values for the Kb on hMC4-R and on hMC3-R were 16.8 nM and 395 nM, respectively.
